From patent US20060069132A1, “Azolecarboxamide herbicides” (priority 2004, published 2006)

How the values were obtained:
pigweed = assay: Test C pre-/postemergence herbicide test; assay type: in vivo, Amaranthus retroflexus
Summary of the method: (§1)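 Preemergence: seeds planted and treated with compound in non-phytotoxic solvent with surfactant; postemergence: plants at 2 to 18 cm (1- to 4-leaf stage) sprayed likewise. Kept in greenhouse 12 to 14 days, then visually rated against controls, 0 (no effect) to 100 (complete control).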

Surinam grass = assay: Test C pre-/postemergence herbicide test; assay type: in vivo, Urochloa decumbens
Summary of the method: as §1

rice = assay: Test C flooded paddy test; assay type: in vivo, Oryza sativa; details: for Plant response rating, Rice: 500 g ai/ha, visual rating after 12 to 14 days
Summary of the method: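 Injury scored visually against controls on a 0 (no effect) to 100 (complete control) scale, 12 to 14 days after treatment in greenhouse. Flooded paddy plants treated at 2-leaf stage; postemergence plants at 1- to 4-leaf stage, 2 to 18 cm tall.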

barnyardgrass = assay: Test B flooded paddy test; assay type: in vivo, Echinochloa crus-galli; details: 1000 g ai/ha, scale 0 to 100 (0 no effect, 100 complete control)
Summary of the method: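 Read-out: visual comparison with controls, scored 0 to 100, where 100 means complete control and 0 no effect. Formulated chemicals were applied postemergence to plants 2–18 cm tall (1- to 4-leaf), or to flooded-paddy plants at the 2-leaf stage, then held 13 to 15 days under glass.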

goosegrass = assay: Test C pre-/postemergence herbicide test; assay type: in vivo, Eleusine indica
Summary of the method: as §1

soybean = assay: Test C pre-/postemergence herbicide test; assay type: in vivo, Glycine max
Summary of the method: as §1

lambsquarters = assay: Test B pre-/postemergence herbicide test; assay type: in vivo, Chenopodium album; details: for Plant response rating (0 to 100 scale), Lambsquarters: 0 is no effect
Summary of the method: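 Response was scored visually 13 to 15 days after treatment against untreated greenhouse controls, 0 meaning no effect and 100 complete control. Formulations (solvent mixture plus surfactant) went onto soil after planting, onto foliage of 1- to 4-leaf plants, and onto 2-leaf plants in a flooded paddy set including rice and barnyardgrass.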

[1] = 62 g ai/ha, preemergence, scale 0 to 100
[2] = 250 g ai/ha, scale 0-100, preemergence
[3] = 500 g ai/ha, scale 0 to 100 (0 no effect, 100 complete control), visual, 12 to 14 days, preemergence
[4] = 125 g ai/ha, scale 0 to 100 (0 no effect, 100 complete control)
[5] = 250 g ai/ha, scale of 0 to 100, 0 is no effect, 100 is complete control
[6] = scale 0 to 100 (0 no effect, 100 complete control)
[7] = 125 g ai/ha, 100 is complete control, preemergence
[8] = 125 g ai/ha, visual rating, scale 0 (no effect) to 100 (complete control), postemergence
[9] = Postemergence, 500 g ai/ha, scale 0 (no effect) to 100 (complete control)
[10] = 125 g ai/ha, scale 0 (no effect) to 100 (complete control), visual, 12 to 14 days, preemergence
[11] = 125 g ai/ha, 0 = no effect, 100 = complete control, preemergence
[12] = postemergence, 500 g ai/ha, scale 0 to 100, 0 is no effect, 100 is complete control
[13] = Postemergence, 250 g ai/ha, scale 0 to 100, 0 no effect, 100 complete control
[14] = postemergence, 62 g ai/ha, scale 0 to 100
[15] = postemergence, 125 g ai/ha, scale 0 to 100

Row | SMILES | Plant response rating, Pigweed (pigweed; [1]) | Plant response rating (0 = no effect, 100 = complete control), Pigweed (pigweed; 125 g ai/ha, preemergence) | Plant response rating, Pigweed (pigweed; [2]) | Plant response rating, Pigweed (pigweed; [3]) | Plant response rating (0 = no effect, 100 = complete control), Surinam Grass (Surinam grass; 125 g ai/ha, preemergence) | Plant response rating, Surinam Grass (Surinam grass; [2]) | Plant response rating, Surinam Grass (Surinam grass; [3]) | Rice plant response rating (rice; 62 g ai/ha, scale 0 to 100) | Rice plant response rating (rice; [4]) | Rice plant response rating (rice; [5]) | Plant response rating, Rice (rice; [6]) | Barnyardgrass plant response rating (barnyardgrass) | Plant response rating, Goosegrass (goosegrass; [1]) | Plant response rating (0 = no effect, 100 = complete control), Goosegrass (goosegrass; 125 g ai/ha, preemergence) | Plant response rating, Goosegrass (goosegrass; [2]) | Plant response rating, Goosegrass (goosegrass; [3]) | Plant response rating, Soybean (soybean; [1]) | Plant response rating, Soybean (soybean; [2]) | Plant response rating, Soybean (soybean; [3]) | Lambsquarters plant response rating (lambsquarters; [8]) | also measured
1 | C=CCNC(=O)c1cccc(NC(=O)c2nn(C(C)C)nc2CC)c1 [Compound 382] | 95 | 95 | 100 | 100 | 95 | 100 | 100 | 20 | 55 | 70 | 75 | 80 | 75 | 90 | 95 | 100 | 100 | 100 | 100 | 50 | Plant response rating (0 = no effect, 100 = complete control), Soybean (soybean; 125 g ai/ha, preemergence): 100; Plant response rating (0 to 100 scale), Lambsquarters (lambsquarters; [7]): 100; Lambsquarters plant response rating (lambsquarters; [9]): 70
2 | CCn1nc(C(C)(C)C)cc1C(=O)Nc1cc(C(=O)N(C)OC)ccc1F [Compound 244] | 100 | – | 100 | 100 | – | 100 | 100 | – | 70 | 75 | 75 | 90 | 70 | – | 100 | 100 | 0 | 10 | 15 | – | Plant response rating, Pigweed (pigweed; [10]): 100; Plant response rating, Surinam Grass (Surinam grass; [1]): 100; Rice plant response rating (rice; 62 g ai/ha, scale 0 to 100 (0 no effect, 100 complete control)): 40; Plant response rating, Goosegrass (goosegrass; [10]): 95; Lambsquarters plant response rating (0 to 100 scale) (lambsquarters; [11]): 90; Plant response rating, Lambsquarters (lambsquarters; 500 g ai/ha, visual rating, 0 = no effect, 100 = complete control, preemergence): 100; Lambsquarters plant response rating (lambsquarters; postemergence, 125 g ai/ha, visual rating, scale 0 (no effect) to 100 (complete control)): 40; Lambsquarters plant response rating (lambsquarters; [12]): 70
3 | CCOC(=O)c1cccc(NC(=O)c2cc(C3(C)CC3)nn2CC)c1 [Compound 295] | – | – | – | – | – | – | – | 5 | 10 | 40 | 40 | 60 | – | – | – | – | – | – | – | 40 | Plant response rating, Pigweed (pigweed; [13]): 95; Plant response rating, Pigweed (pigweed; [14]): 80; Plant response rating, Surinam Grass (Surinam grass; [13]): 15; Plant response rating, Surinam Grass (Surinam grass; [15]): 5; Plant response rating, Surinam Grass (Surinam grass; [14]): 5; Plant response rating, Goosegrass (goosegrass; [13]): 50; Plant response rating, Goosegrass (goosegrass; [15]): 20; Plant response rating, Goosegrass (goosegrass; [14]): 20; Plant response rating, Soybean (soybean; [13]): 55; Plant response rating, Soybean (soybean; [15]): 50; Plant response rating, Soybean (soybean; [14]): 50; Lambsquarters plant response rating (0 to 100 scale) (lambsquarters; [11]): 0; Lambsquarters plant response rating (lambsquarters; [12]): 60
4 | CCc1nn(C(C)C)nc1C(=O)Nc1cccc(C(=O)N(C)CC)c1 [Compound 386] | 100 | 100 | 100 | 100 | 80 | 95 | 95 | 25 | 65 | 70 | 75 | 90 | 85 | 95 | 95 | 95 | 90 | 95 | 95 | 30 | Plant response rating, Surinam Grass (Surinam grass; [1]): 80; Plant response rating (0 = no effect, 100 = complete control), Soybean (soybean; 125 g ai/ha, preemergence): 90; Plant response rating (0 to 100 scale), Lambsquarters (lambsquarters; [7]): 100; Lambsquarters plant response rating (lambsquarters; [9]): 60
